From US20230322715A1, “BROAD SPECTRUM ANTI-CANCER COMPOUNDS” (The Regents of the University of California, priority 2019, published 2023)
Where two headings read alike, the source gives them in different places.

Assays:
[1] = system: cancer cells by cancer type; conditions: read-out: EC50 of Chemo SOC, cited from earlier work
[2] = biological target: T1, ALKBH5 (Homo sapiens (Human), UniProt Q6P6C2); test: Fluorescence enzymatic inhibition assay (m6A7-Broccoli RNA / DFHBI-1T) against ALKBH5; format: biochemical; conditions: for IC50: read-out: Enzymatic IC50 ALKBH5
T1 sequence (Q6P6C2 whole entry): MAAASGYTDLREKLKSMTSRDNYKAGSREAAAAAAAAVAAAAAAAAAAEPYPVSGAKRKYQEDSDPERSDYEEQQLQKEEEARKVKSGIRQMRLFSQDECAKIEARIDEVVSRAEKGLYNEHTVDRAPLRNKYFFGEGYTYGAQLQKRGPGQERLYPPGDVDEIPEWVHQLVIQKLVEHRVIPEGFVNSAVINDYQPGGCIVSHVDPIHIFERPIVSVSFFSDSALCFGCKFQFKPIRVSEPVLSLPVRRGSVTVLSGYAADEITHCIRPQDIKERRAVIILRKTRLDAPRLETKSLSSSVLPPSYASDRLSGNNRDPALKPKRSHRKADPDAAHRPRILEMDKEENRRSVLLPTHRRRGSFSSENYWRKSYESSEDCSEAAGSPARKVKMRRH
Method: (§1) Inhibitors were added in concentrations ranging from 0.008-40 μM; all inhibitors were dissolved in DMSO and added to a final concentration of 0.2% DMSO. […] After incubation at room temperature for 2 hours, the plates were left at 4° C. overnight (16 hours) to allow DFHBI-1T to bind to A7-Broccoli RNA. […] Sigmoidal dose-response curves were fitted in GraphPad Prism 6. All assays were performed in triplicate, with additional repetitions added as necessary.

[3] = system: B16 melanoma tumors; test: B16 melanoma mouse model, GVAX/anti-PD-1 immunotherapy with ALKBH5 inhibitor; format: in vivo; conditions: combined with PD-1 Ab and GVAX, vs control
Method: Animal studies and procedures were approved by the UCSD Institutional Animal Care and use Committee. Female C57BL/6J wild-type mice were obtained from The Jackson Laboratory and housed in the UCSD specific-pathogen free facility. 86.129S2-Tcratm1Mcrn/J (Tcra+) mice, which are CDC and CDB· T cell deficient, were obtained from The Jackson Laboratory and bred on-site. For the standard protocol, mice (aged 9-12 weeks at use) were injected subcutaneously (s.c.) with 5×10^5 B16 cells (NTC control, Fto-KO, or Alkbh5-KO, generated as described below) into the left flank on day 0, and then injected with 1 OE irradiated (100 GY) BIG-GM CSF cells (GVAX) into the opposite flank on days 1 and 4 to elicit an anti-tumor immune response. Mice were then injected intraperitoneally (i p.) with 10 mg/kg (−200 pgimouse) of rat monoclonal anti-mouse RD-I Ab (Bio X Cell, clone 29F. IA 12) on the days as indicated on the figures. For PD-1 Ab treatment alone, mice were implanted with B16 cells and treated with antibody on day 6, 9 and 12. For the Treg depletion experiments, mice were injected as described above and were additionally injected i.p. vittl rat anti-mouse CD25 Ab (Bio X Cell, clone 7D4) on day 11. Tumors were measured every 3 days beginning on day 7. […]

[4] = biological target: T1, ALKBH5; test: Michaelis-Menten kinetics against ALKBH5; format: biochemical
[5] = system: B16 cells; test: B16 cell proliferation assay with ALKBH5 inhibitor; format: cell-based, mouse; conditions: 10, 30 and 50 μM ALKBH5 inhibitor vs DMSO
Method: B16 cells were plated at a density of 2000/well in 96-well plates in triplicate and incubated for 0, 2, 4, or 6 days before cell numbers were determined by manual counting or by using a CellTiter AQueous One Solution Cell Proliferation Assay kit (Promega).
Our results thus far indicate that loss f-m6A demethylase Alkbh5, in B16 melanoma cells, potentiates the efficacy of GVAX/anti-PD-1 therapy. To identify clinically relevant pharmacological inhibitors of Alkbh5, we have identified a specific inhibitor of ALKBH5, named ALK-04, by in silico screening of compounds using the X-ray crystal structure of ALKBH5 (PDB ID code 4NRO) and by performing structure-activity relationship studies on a library of synthesized compounds. […] Next, we compared tumor growth of control and inhibitor-treated mice during immunotherapy.

[6] = biological target: FTO (Homo sapiens (Human), UniProt Q9C0B1); test: Fluorescence enzymatic inhibition assay (m6A7-Broccoli RNA / DFHBI-1T) against FTO; format: biochemical; conditions: for IC50: read-out: Enzymatic IC50 FTO; for selectivity between FTO and ALKBH5: comparison of enzymatic IC50 values
Chain of FTO (Q9C0B1 whole entry): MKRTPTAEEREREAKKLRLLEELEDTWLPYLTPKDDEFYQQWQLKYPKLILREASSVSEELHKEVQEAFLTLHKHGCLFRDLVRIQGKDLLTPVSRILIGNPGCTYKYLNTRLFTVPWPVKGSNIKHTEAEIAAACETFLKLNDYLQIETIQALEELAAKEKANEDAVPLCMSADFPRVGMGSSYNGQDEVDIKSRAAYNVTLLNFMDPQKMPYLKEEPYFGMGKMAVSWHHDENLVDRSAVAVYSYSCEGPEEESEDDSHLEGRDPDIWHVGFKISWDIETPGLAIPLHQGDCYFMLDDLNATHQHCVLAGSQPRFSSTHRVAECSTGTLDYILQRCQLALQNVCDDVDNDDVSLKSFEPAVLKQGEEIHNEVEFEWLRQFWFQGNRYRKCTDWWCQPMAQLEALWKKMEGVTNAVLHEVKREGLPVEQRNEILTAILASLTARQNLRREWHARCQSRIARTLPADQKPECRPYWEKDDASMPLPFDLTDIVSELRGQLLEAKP
Method: In order to determine their efficacy as FTO inhibitors, the compounds were screened by a fluorescence enzymatic inhibition assay developed previously by the Jaffrey lab.^44 Briefly, a nonfluorescent methylated RNA substrate termed “m6A7-Broccoli” is incubated with FTO in the presence of 2-oxoglutarate (300 μM), (NH4)2Fe(SO4)2·6H2O (300 μM), and L-ascorbate (2 mM) for 2 hours at room temperature in reaction buffer (50 mM NaHEPES, pH 6).
as §1

[7] = elogD / log D determination; conditions: Table 700 compounds
[8] = biological target: T1, ALKBH5; conditions: reported from Huang et. al 2019; read-out: Enzymatic IC50 ALKBH5; cited from earlier work
[9] = system: MONOMAC6 and NB4 cells; conditions: Huang et. al; cited from earlier work
[10] = system: TS576 glioblastoma stem cells; test: Neurosphere (tumorosphere) formation assay, TS576; format: cell-based, human; conditions: TS576, 30 μM inhibitor, 2 days, vs vehicle control
Method: To understand the effects of our FTO inhibitors on the self-renewal properties of GSCs, tumorospheres cultured from the patient-derived GSC line TS576 were treated with 30 μM of FTO-04, FTO-10, FTO-11, or FTO-12 (FIG. 4-3AB; cell line gifted from the Furnari lab)^0.45, 46 The GSCs were cultured in sphere-forming assays for 24 hours, then treated with either inhibitors or DMSO control for 2 days. The size of the tumorospheres was calculated using ImageJ.
Early passaged GSCs were used to understand the efficacy of ALK-04 on the self-renewal capacity of GSCs by tumorsphere-formation assay as described earlier^10, 11. In brief, GSCs were seeded at 4×10^4 cells in 24 well plate and cultured for 3 days followed by treatment with ALK-04 inhibitors at 20 μM daily for 3 days. After 3 days of treatment the images of the tumorospheres were imaged with phase contrast microscope and size was measured with Image J, to understand the effects of drugs on the self-renewal of GSCs on sphere formation. This process was also repeated for healthy neural stem cells (hNSCs) treated daily with 20 μM ALK-04 for three days to assess the therapeutic ratio.

[11] = m6A7-Broccoli fluorescence assay, 0.250 μM ALKBH5
[12] = m6A7-Broccoli fluorescence assay, 0.250 μM FTO, inhibitor up to 40 μM, triplicate

## O=c1[nH]cc(F)c(=O)[nH]1 [5FU, fluorouracil]
[1]; Colon
  EC50: 2 to 10 µM
[1]; Gastric
  EC50: 28.8 µM

## CC(C)(C)OC(=O)N1CSC[C@@H]1CN [ALK-04]
[2]; Table 700 compounds
  IC50: 0.9 ± 0.7 µM
[3]
  B16 tumor growth during immunotherapy: significantly reduced tumor growth
[4]
  mechanism of inhibition of ALKBH5: competitive inhibitor
[5]
  B16 cell proliferation: not significantly affected
[6]; Table 700 compounds
  IC50: > 40 µM
[7]
  elogD: 0.29

## Nc1ccn([C@@H]2O[C@H](CO)[C@@H](O)[C@@H]2O)c(=O)n1 [Cytarabine]
[1]; Leukemia
  EC50: 0.25 to 3.5 µM

## Cc1noc(C)c1-c1cc(Cl)c(Nc2ccccc2C(=O)NO)c(Cl)c1 [FB23-2]
[8]
  IC50: > 40 µM
[9]
  cellular concentration relative to FB23 (fold): 3-10

## Cc1noc(C)c1-c1cc(Cl)c(Nc2ccccc2C(=O)O)c(Cl)c1 [FB23]
[8]
  IC50: > 40 µM

## Nc1ncc(-c2ccc3cc(O)ccc3c2)cn1 [FTO-10, 6-(2-aminopyrimidin-5-yl)naphthalen-2-ol]
[2]; [11]
  IC50: 36.1 µM
[10]
  size of tumorospheres: significant reduction in size of the tumorospheres
other
  melting point: 230 °C
[6]
  selectivity between FTO and ALKBH5: equivalent inhibitors towards both demethylases
[6]; [12]
  IC50: 48.1 µM

## COc1ncc(-c2ccc3nc(C)ccc3c2)cn1 [FTO-11, 6-(2-methoxypyrimidin-5-yl)-2-methylquinoline]
[2]; [11]
  IC50: 19.5 µM
[10]
  size of tumorospheres: significant reduction in size of the tumorospheres
other
  melting point: 230 °C
[6]
  selectivity between FTO and ALKBH5: equivalent inhibitors towards both demethylases
[6]; [12]
  IC50: 11.3 µM

## COc1ccc2cc(-c3cnc(N)nc3)ccc2c1 [FTO-12, 5-(6-methoxynaphthalen-2-yl)pyrimidin-2-amine]
[2]; highest concentration measured
  inhibition of ALKBH5 at the highest concentration measured: no measurable inhibition
[2]; [11]
  IC50: > 40 µM
[10]
  size of tumorospheres: significant reduction in size of the tumorospheres
other
  melting point: 230 °C
[6]
  selectivity between FTO and ALKBH5: five-fold or higher
[6]; [12]
  IC50: 18.3 ± 1.7 µM

## Nc1ncc(-c2cccc(OCc3ccccc3)c2)cn1 [FTO-13, 5-(3-(benzyloxy)phenyl)pyrimidin-2-amine]
[2]; [11]
  IC50: 14.9 µM
other
  melting point: 230 °C
[6]
  selectivity between FTO and ALKBH5: distinct preference towards ALKBH5 over FTO
[6]; [12]
  IC50: 36.7 µM

## COCCNc1ncc(-c2ccc3nc(C)ccc3c2)cn1 [FTO-19, N-(2-methoxyethyl)-5-(2-methylquinolin-6-yl)pyrimidin-2-amine]
[2]; [11]
  IC50: 53.5 µM
other
  melting point: 230 °C
[6]
  selectivity between FTO and ALKBH5: equivalent inhibitors towards both demethylases
[6]; [12]
  IC50: 25.2 µM

## COCCNc1ncc(-c2ccc(CO)c(OC)c2)cn1 [FTO-20, (2-methoxy-4-(2-((2-methoxyethyl)amino)pyrimidin-5-yl)phenyl)methanol]
[2]; [11]
  IC50: 90.2 ± 7.8 µM
other
  melting point: 230 °C
[6]
  selectivity between FTO and ALKBH5: five-fold or higher
[6]; [12]
  IC50: 17.2 ± 2.9 µM

## O=C(c1cc(Cc2n[nH]c(=O)c3ccccc23)ccc1F)N1CCN(C(=O)C2CC2)CC1 [Olaparib]
[1]; Breast
  EC50: 30 µM

## N.N.[Cl][Pt][Cl] [cisplatin]
[1]; Breast
  EC50: 5 µM
[1]; Esophagoel
  EC50: 8 µM
[1]; Gastric
  EC50: 13.5 to 25 µM
[1]; Ovarian
  EC50: 2 to 40 µM
[1]; Pancreatic
  EC50: 20 to 26 µM

## Nc1ccn([C@@H]2O[C@H](CO)[C@@H](O)C2(F)F)c(=O)n1 [gemcitabine]
[1]; Pancreatic
  EC50: < 1 µM

## CS(=O)(=O)CCNCc1ccc(-c2ccc3ncnc(Nc4ccc(OCc5cccc(F)c5)c(Cl)c4)c3c2)o1 [lapatinib]
[1]; Breast
  EC50: 137 µM

## O=C1[O][Pt]2([NH][C@@H]3CCCC[C@H]3[NH]2)[O]C1=O [oxalplatin, oxaliplatin]
[1]; Colon
  EC50: 2 to 20 µM
[1]; Esophagoel
  EC50: 37 µM
[1]; Pancreatic
  EC50: 3.5 to 10 µM
